This passage reports IC50, inhibition and in vitro cytotoxicity results from US20060148848A1, “Compounds and methods for treating cancer and inflammation” (QLT, Inc., priority 2002, published 2006).

Data set [1] concerns the target T1, SGK2α (Homo sapiens, UniProt Q9HBY8).
T1 construct: made in house; host or cells: baculovirus; Sf9 (virus generation) and High Five insect cells (expression)
T1 sequence (Q9HBY8 1-367): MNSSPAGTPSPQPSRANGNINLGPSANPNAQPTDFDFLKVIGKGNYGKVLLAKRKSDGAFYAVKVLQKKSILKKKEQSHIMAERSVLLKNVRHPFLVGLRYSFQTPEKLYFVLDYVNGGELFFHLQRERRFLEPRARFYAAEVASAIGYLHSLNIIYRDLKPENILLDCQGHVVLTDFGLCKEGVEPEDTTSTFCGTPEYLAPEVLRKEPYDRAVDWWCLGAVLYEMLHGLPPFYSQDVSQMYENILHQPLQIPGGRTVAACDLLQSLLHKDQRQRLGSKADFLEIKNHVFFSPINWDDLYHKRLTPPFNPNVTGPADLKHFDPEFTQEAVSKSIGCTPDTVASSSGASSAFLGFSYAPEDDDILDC
Put plainly: SGK2α in vitro kinase assay. The format is biochemical. To be noted: recombinant human GST-SGK2α, [γ-32P]-ATP, 15 minutes at ambient temperature. From the text: SGK2α cDNA was cloned from human brain cDNA library by the polymerase chain reaction (PCR) technique and subsequently inserted directly into pPCR-2.1 T/A cloning vector (Strategene). After DNA sequencing, the confirmed wild-type human SGK2α cDNA was subcloned into baculovirus expression vector pAcG2T (BD PharMingen) for recombinant protein expression in insect cells. Expression of human SGK2α as a fusion protein required that the cDNA be ligated into the polyclonal site situated in frame and downstream of the glutathione-S-transferase gene of the baculovirus transfer vector pAcG2T. The 1104 base pair SGK2α coding sequence was excised from the pPCR-2.1 T/A vector using the Bam HI and Eco RI restriction sites generated the 5′ and 3′ of the coding sequence respectively by PCR amplification. This DNA fragment was directionally subcloned in-frame into the Bam HI and Eco RI polyclonal sites of the pAcG2T vector. Positive recombinant clones of SGK2α in the pAcG2T vector were determined by restriction enzyme analysis with Bam HI and Eco RI restriction enzymes.
Active SGK2α enzyme was expressed using the baculovirus expression vector system in a two-step process. […] A complete quantitative and qualitative analysis of the protein was monitored using Coomassie blue staining and Western blot analysis using anti-GST specific antibody (Kinetek). […]

Data set [2] concerns H460 cells. Put plainly: Cell proliferation (3H-thymidine incorporation), H460. The format is cell-based. To be noted: Homo sapiens, NCI-H460, 24 hours, read-out: in vitro inhibition of cell proliferation. From the text: (§1) This procedure (Jelinkova, R. B. et al., “Antiproliferative effect of a lectin- and anti-Thy-1.2 antibody-targeted HPMA copolymer-bound doxorubicin on primary and metastatic human colourectal carcinoma and on human colourectal carcinoma transfected with the mouse Thy-1.2 gene”, Bioconjug. Chem. (2000), Vol. 11, No. 5, pp. 664-73) is used to assess the effect compounds have on various cell lines with respect to proliferation. The rate of anchorage-independent growth of various tumour cells is quantified by measuring the amount of free isotopic thymidine that has been incorporated into the cells over a period of time. The effect of any compound to inhibit the proliferation of various tumour cells could be used as an indication of its ability to prevent disease progression in cancer.
(§2) Cultured tumour cells are harvested cells as per normal procedures: i.e. trypsinize, centrifuge and count cells. […]
(§3) After incubation, plates are observed under the microscope for obvious cell death, abnormal cell shape, crystal formation of the compound, etc. […] Finally, 100 μL of scintillation fluid is added to each well and the plates are counted in a Wallac™ 1450 Microbeta™ counter according to user manual instructions.
(§4) The amount of inhibition is determined by the following formula: % inhibition=100−[(AVG treatment−AVG positive control)/[…]]

The test system of data set [3] is HUVEC cells. Description: Cell proliferation (3H-thymidine incorporation), HUVEC. Type of data set: cell-based. The following applies: Homo sapiens, 24 hours, read-out: in vitro inhibition of cell proliferation.
From the text: as §1, §2, §3, §4

The test system of data set [4] is PC3 cells. Description: Cell proliferation (3H-thymidine incorporation), PC3. The format is cell-based. To be noted: Homo sapiens, PC-3, 24 hours, read-out: in vitro inhibition of cell proliferation.
From the text: as §1, §2, §3, §4
(In general: Dividing cells build labelled thymidine or BrdU into new DNA.)

The test system of data set [5] is HS27 cells. Description: Cytotoxicity assay (calcein AM cell viability), HS27. Type of data set: cell-based. To be noted: 50 μM, approximately 24 hours. An excerpt: (§5) This procedure is used to assess the effects compounds have on various cell lines with respect to cell viability. Cell viability is quantified using calcein AM and measuring its conversion to a fluorescent product (calcein) with a fluorimeter.
(§6) The principle of this assay is based on the presence of ubiquitous intracellular esterase activity found in live cells. By enzymatic reaction of esterase, non-fluorescent cell-permeant calcein AM is converted to the intensely fluorescent calcein. The polyanionic dye calcein is retained within live cells, producing a green fluorescence in live cells. […]
(§7) Cells were collected from tissue culture flasks and trypsinized, centrifuged, resuspended and counted. […]
(§8) The calcein AM solution is prepared by added 50 μg of calcein AM crystal (m.w.=994.87 g/mol, Molecular Probes, Eugene, Oreg.) and nnhydrous DMSO (Sigma Aldrich) to make 1 mM stock and diluting stock to 2× the final desired concentration in 1×DPBS just before the assay. […] Fluorescence data was read and recorded (Fluoroskan Ascent® FL fluorimeter (excitation˜485 nm, emission˜527 nm)).
(§9) The values for replicates (usually six) are averaged and % inhibition is calculated as follows: % inhibition=100−[(AVG treatment−AVG positive control)/(AVG negative control−AVG positive control)*100]

Data set [6] has as its system HUVEC cells. Put plainly: Cytotoxicity assay (calcein AM cell viability), HUVEC. Type of data set: cell-based. To be noted: 50 μM, approximately 24 hours.
From the text: as §5, §6, §7, §8, §9

Data set [7] concerns LL-86 cells. Put plainly: Cytotoxicity assay (calcein AM cell viability), LL-86. Type of data set: cell-based. To be noted: 50 μM, approximately 24 hours.
From the text: as §5, §6, §7, §8, §9

One may read the IC50 as the concentration that inhibits the measured activity by half.

As for `CCc1c2cc(OC)c(OC)cc2cc(=O)n1Cc1ccccc1` [2-Benzyl-1-ethyl-6,7-dimethoxy-2H-isoquinolin-3-one], the IC50 in data set [1] was determined as 970 nM. The results for the inhibition at 50 µM in data set [2], in data set [3] and in data set [4] were 27%, 42% and 67%, respectively. The results for the in vitro cytotoxicity in data set [5], in data set [6] and in data set [7] were 0%, 4% and 0%, respectively.
